Blank lines part the entries; values can stand above or below the compound they belong to.
Legend:
PSMA+ LNCaP cells = test: Internalization experiments (surface-bound and internalized fractions); type: cell-based; details: 30 nM radiolabeled compound, 45 min
Experimental: (§1) PSMA^+ LNCaP cells (ATCC CRL-1740) were cultured in RPMI medium supplemented with 10% fetal calf serum and 2 mmol/L L-glutamine (all from PAA). Cells were grown at 37° C. in humidified air with 5% CO2 and were harvested using trypsin-ethylenediaminetetraacetic acid (trypsin-EDTA; 0.25% trypsin, 0.02% EDTA, Invitrogen).
For internalization experiments, 10^5 cells per well were seeded in poly-L-lysine coated 24-well cell culture plates 24 h before incubation. After washing, the cells were incubated with 30 nM of the radiolabeled compound for 45 min at 37° C. and at 4° C., respectively. Cellular uptake was terminated by washing 3 times with 1 mL of ice-cold PBS. To remove surface-bound radioactivity, cells were incubated twice with 0.5 mL glycine-HCl in PBS (50 mM, pH=2.8) for 5 min. The cells were washed with 1 mL of ice-cold PBS and lysed using 0.3 N NaOH (0.5 mL). The surface-bound and the internalized fractions were measured in a gamma counter. The cell uptake was calculated as percent of the initially added radioactivity bound to 10^5 cells [% ID/10^5 cells].

PSMA (PSMA+ LNCaP cells) = molecular target: T1, PSMA (PSMA+ LNCaP cells) (Homo sapiens, UniProt Q04609); test: Competitive cell binding assay against 68Ga-labeled PSMA-10 radioligand; details: radioligand [68Ga]Ga-PSMA-10 0.75 nM, metal-free ligand
T1 construct: host or cells: LNCaP cells
Experimental: as §1
The competitive cell binding assay and internalization experiments were performed as described previously (4). Briefly, the cells (10^5 per well) were incubated with a 0.75 nM solution of ^68Ga-labeled radioligand [Glu-urea-Lys(Ahx)]2-HBED-CC (PSMA-10, precursor ordered from ABX, Radeberg, Germany) in the presence of 12 different concentrations of analyte (0-5000 nM, 100 μL/well). After incubation, the mixture was removed and the wells were washed 3 times with PBS using a multiscreen vacuum manifold (Millipore, Billerica, Mass.). Cell-bound radioactivity was measured using a gamma counter (Packard Cobra II, GMI, Minn., USA). The 50% inhibitory concentration (IC50) values were calculated by fitting the data using a nonlinear regression algorithm (GraphPad Software).

[1] = Biodistribution (organ distribution) of 68Ga-labeled compounds in LNCaP-tumor bearing mice; type: in vivo, BALB/c nu/nu mice; details: 1 h p.i.
Experimental: The precursor peptides [1 nmol in HEPES buffer (580 mg/ml), 40 μL] were added to 40 μL [^68Ga]Ga^3+ eluate (˜40 MBq). The pH was adjusted to 3.8 using 30% NaOH and 10% NaOH, respectively. The reaction mixture was incubated at 98° C. for 10 minutes. The radiochemical yield (RCY) was determined by HPLC.
For the experimental tumor models 5×10^6 cells of LNCaP (in 50% Matrigel; Becton Dickinson, Heidelberg, Germany) were subcutaneously inoculated into the right trunk of 7- to 8-week-old male BALB/c nu/nu mice (Charles River). The tumors were allowed to grow until approximately 1 cm^3 in size. The ^68Ga-labeled compounds were injected into a tail vein (1-2 MBq; 60 pmol). At 1 h after injection the animals were sacrificed. Organs of interest were dissected, blotted dry, and weighed. The radioactivity was measured using a gamma counter and calculated as % ID/g. All animal experiments complied with the current laws of the Federal Republic of Germany.

PSMA = PSMA (Homo sapiens, UniProt Q04609); details: radioligand of the competitive binding assay; cited from earlier work
Chain of PSMA (Q04609 whole entry, species assumed): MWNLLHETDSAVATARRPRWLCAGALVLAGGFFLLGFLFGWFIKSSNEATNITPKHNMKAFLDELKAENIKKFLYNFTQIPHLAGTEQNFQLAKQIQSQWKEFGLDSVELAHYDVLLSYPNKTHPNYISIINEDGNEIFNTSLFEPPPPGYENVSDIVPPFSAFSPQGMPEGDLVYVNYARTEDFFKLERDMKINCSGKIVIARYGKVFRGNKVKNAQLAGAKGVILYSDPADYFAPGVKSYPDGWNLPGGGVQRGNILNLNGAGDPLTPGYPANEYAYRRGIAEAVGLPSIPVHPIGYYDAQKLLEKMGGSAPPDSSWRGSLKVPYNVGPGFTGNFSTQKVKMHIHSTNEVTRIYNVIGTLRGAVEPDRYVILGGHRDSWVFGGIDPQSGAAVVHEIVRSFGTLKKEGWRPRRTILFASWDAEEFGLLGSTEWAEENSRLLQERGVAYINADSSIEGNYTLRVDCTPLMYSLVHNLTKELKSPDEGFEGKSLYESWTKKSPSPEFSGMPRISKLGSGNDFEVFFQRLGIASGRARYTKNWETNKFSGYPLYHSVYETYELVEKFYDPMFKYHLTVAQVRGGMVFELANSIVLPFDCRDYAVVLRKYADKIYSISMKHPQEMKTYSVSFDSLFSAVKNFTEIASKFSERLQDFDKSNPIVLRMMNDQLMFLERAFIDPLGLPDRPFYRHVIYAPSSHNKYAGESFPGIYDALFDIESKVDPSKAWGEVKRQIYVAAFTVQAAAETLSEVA

T1 sequence (Q04609 whole entry): as the sequence (Q04609 whole entry, species assumed) above

- IC50 (PSMA (PSMA+ LNCaP cells)): 15.9 ± 5.46 nM
Compound: CC1(C)C(/C=C/C2=C(Oc3ccc(S(=O)(=O)O)cc3)C(=C/C=C3/N(CCCCS(=O)(=O)O)c4ccc(S(=O)(=O)O)cc4C3(C)C)/CCC2)=[N+](CCCCCC(=O)NCCCC[C@H](NC(=O)CN2CCN(CC(=O)O)CCN(CC(=O)O)CCN(CC(=O)O)CC2)C(=O)NC[C@H]2CC[C@H](C(=O)N[C@@H](Cc3ccc4ccccc4c3)C(=O)NCCCC[C@H](NC(=O)N[C@@H](CCC(=O)O)C(=O)O)C(=O)O)CC2)c2ccc(S(=O)(=O)[O-])cc21 (stereo in doubt) [Glu-urea-Lys-2-Nal-Chx-Lys(IRDye800CW)-DOTA]
- Specific cell surface bound (PSMA+ LNCaP cells): 25.51 ± 9.73 % ID/10^5 cells
- Specific internalized (PSMA+ LNCaP cells): 27.64 ± 12.80 % ID/10^5 cells

- Kidney uptake in comparison to the reference ([1]; in words): significantly reduced
- Tumor uptake in comparison to the reference ([1]; in words): comparable
- Organ distribution, Blood (Mean) ([1]; tail vein, 60 pmol, n = 3): 1.14 % ID/g
- Organ distribution, Brain (Mean) ([1]; tail vein, 60 pmol, n = 3): 0.07 % ID/g
- Organ distribution, Heart (Mean) ([1]; tail vein, 60 pmol, n = 3): 0.51 % ID/g
- Organ distribution, Intestine (Mean) ([1]; tail vein, 60 pmol, n = 3): 0.43 % ID/g
- Organ distribution, Kidney (Mean) ([1]; tail vein, 60 pmol, n = 3): 65.64 % ID/g
- Organ distribution, Liver (Mean) ([1]; tail vein, 60 pmol, n = 3): 0.95 % ID/g
- Organ distribution, Lung (Mean) ([1]; tail vein, 60 pmol, n = 3): 1.47 % ID/g
- Organ distribution, Muscle (Mean) ([1]; tail vein, 60 pmol, n = 3): 0.34 % ID/g
- Organ distribution, Spleen (Mean) ([1]; tail vein, 60 pmol, n = 3): 2.82 % ID/g
- Organ distribution, Tumor (Mean) ([1]; LNCaP tumor, tail vein, 60 pmol, n = 3): 4.13 % ID/g
Compound: ^68Ga-Glu-urea-Lys-2-Nal-Chx-Lys(IRDye800CW)-DOTA

Compound: [Glu-urea-Lys(Ahx)]2-HBED-CC [[^68Ga]Ga -PSMA-10]
- Kd (PSMA): 2.1 nM
